These results are taken from paper PMC11434749, “In Vitro Interaction of Binuclear Copper Complexes with Liver Drug-Metabolizing Cytochromes P450” (Pharmaceuticals, 2024).

One data set deals with T1, CYP2C19 (Homo sapiens, UniProt P33261).
T1 construct: Pooled human liver microsomes were obtained from Biopredic (Rennes, France); tissue Biopredic (Rennes, France); host or cells: pooled human liver microsomes, seventeen donors
As to the kind of experiment: Inhibition of CYP2C19 activity (diazepam N-desmethylation) in human liver microsomes. In kind it is in vitro ADME. The note with it: HLM, diazepam 150 µmol·L^−1, preincubation 30 min at 37 °C, Mean ± S.D. As to the method: The following enzyme assays were performed to determine the activities of specific CYP enzymes: CYP1A2, 7-ethoxyresorufin O-deethylation; CYP2A6, coumarin 7-hydroxylation; CYP2B6, 7-ethoxy-4-(trifluoromethyl) coumarin (EFC) O-deethylation; CYP2C8 paclitaxel 6α-hydroxylation; CYP2C9, diclofenac 4′-hydroxylation; CYP2C19, diazepam N-desmethylation; CYP2D6, bufuralol 1′-hydroxylation; CYP2E1, chlorzoxazone 6-hydroxylation; and CYP3A4/5, testosterone 6β-hydroxylation.
The incubation mixtures contained 100 mmol·L^−1 potassium phosphate buffer (pH 7.4), an NADPH-generating system (0.8 mmol·L^−1 NADP^+, 5.8 mmol·L^−1 isocitrate, 0.3 unit/mL of isocitrate dehydrogenase, and 8 mmol·L^−1 MgCl2), HLM, and an individual probe substrate.
For the determination of metabolites formed from specific substrates, a Prominence LC-20A HPLC system (Shimadzu, Kyoto, Japan) with UV detection or fluorescence detection was used (see Table 2). As a rule, reversed-phase chromatography was applied with Merck (Darmstadt, Germany) LiChroCART 250 × 4 mm (i.d.) cartridges packed with a LiChrospher RP-18 silica gel (5 µm particle size) with C-18 reversed-phase properties; a 4 × 4 mm (i.d.) guard column was also used. For the composition of the mobile phase in the respective analyses, see the original reference.
Initially, for each enzyme assay, a preliminary experiment was carried out to determine Km and Vmax to obtain the appropriate concentration of the specific substrates for the inhibition experiments (the substrate concentration was chosen in the range corresponding to the value of the Km for each particular reaction). Data were analyzed using the Sigma plot software, as mentioned above, with spectral studies. Inhibition experiments were performed with a concentration range of the tested complexes from 0.78 to 50 µmol·L^−1. The concentration range used here is in accordance with the MIC (see above) and is adequate. The experimental conditions were the same as for the determination of individual CYP activities (Table 2); the assays were performed in duplicates, with individual values differing by less than 20%. Preincubation of the reaction mixtures with the tested complexes for 30 min at 37 °C was carried out in all assays. In all cases, the inhibition of individual CYP activities was evaluated by plotting the respective remaining activity against the inhibitor concentration.
On the technique in general: Liver microsomes are a subcellular fraction often used to study metabolism.

The next data set concerns the target T2, CYP2E1 (Homo sapiens, UniProt P05181).
T2 construct: Pooled human liver microsomes were obtained from Biopredic (Rennes, France); tissue Biopredic (Rennes, France); host or cells: pooled human liver microsomes, seventeen donors
As to the kind of experiment: Inhibition of CYP2E1 activity (chlorzoxazone 6-hydroxylation) in human liver microsomes. The settings on record: HLM, chlorzoxazone 30 µmol·L^−1, preincubation 30 min at 37 °C, Mean ± S.D. Format: in vitro ADME. As to the method: (§1) The following enzyme assays were performed to determine the activities of specific CYP enzymes: CYP1A2, 7-ethoxyresorufin O-deethylation; CYP2A6, coumarin 7-hydroxylation; CYP2B6, 7-ethoxy-4-(trifluoromethyl) coumarin (EFC) O-deethylation; CYP2C8 paclitaxel 6α-hydroxylation; CYP2C9, diclofenac 4′-hydroxylation; CYP2C19, diazepam N-desmethylation; CYP2D6, bufuralol 1′-hydroxylation; CYP2E1, chlorzoxazone 6-hydroxylation; and CYP3A4/5, testosterone 6β-hydroxylation. […]
(§2) For the determination of metabolites formed from specific substrates, a Prominence LC-20A HPLC system (Shimadzu, Kyoto, Japan) with UV detection or fluorescence detection was used (see Table 2). […]
(§3) Initially, for each enzyme assay, a preliminary experiment was carried out to determine Km and Vmax to obtain the appropriate concentration of the specific substrates for the inhibition experiments (the substrate concentration was chosen in the range corresponding to the value of the Km for each particular reaction). Data were analyzed using the Sigma plot software, as mentioned above, with spectral studies. […] In all cases, the inhibition of individual CYP activities was evaluated by plotting the respective remaining activity against the inhibitor concentration.

Another data set concerns the target T3, CYP2D6 (Homo sapiens, UniProt P10635).
T3 construct: Pooled human liver microsomes were obtained from Biopredic (Rennes, France); tissue Biopredic (Rennes, France); host or cells: pooled human liver microsomes, seventeen donors
As to the kind of experiment: Inhibition of CYP2D6 activity (bufuralol 1′-hydroxylation) in human liver microsomes. Format: in vitro ADME. The note with it: HLM, bufuralol 15 µmol·L^−1, preincubation 30 min at 37 °C, Mean ± S.D. The procedure:
as §1, §2, §3

A further data set has as its system HLM CYP enzymes. The experiment in a line: Spectral study (binding difference spectra) of the interaction with HLM CYP enzymes. On the set-up: species or system human. The note with it: for Kd: HLM, CYP 1 µmol·L^−1 in 50 mmol·L^−1 potassium phosphate buffer pH 7.4, absorbance change at about 417 nm, room temperature, read-out: spectroscopic binding constant (KS); for mode of binding to HLM CYP enzymes (difference spectra): maximum at about 380 nm, minimum at about 417 nm (Type I binding spectra). The source says:
Spectral studies in the Soret region were used to detect the substrate-induced difference spectra of human liver microsomal (HLM) CYPs. […] The spectral change corresponds to the formation of a maximum formed at about 380 nm and a minimum at about 417 nm (Figure 2). The values of the corresponding spectroscopic binding constant (KS) for the tested compounds were 39.50 ± 10.06 µmol·L^−1 and 44.86 ± 9.88 µmol·L^−1, respectively. These values indicate the relatively specific binding of these complexes on CYPs.
Figure 2 Spectral determination of the interaction between tested complexes No. 5 (a) and No. 6 (b) and CYP in HLM. […] The concentration of CYP in microsomal preparation, 1 µmol·L^−1 in 50 mmol·L^−1 potassium phosphate buffer (pH 7.4).
The binding difference spectra of the interactions of complex No. 5 and complex No. 6 with microsomal CYP enzymes were followed according to established procedures. The cuvette contained HLM that was diluted to a final concentration of CYP 1 µmol·L^−1 in 50 mmol·L^−1 potassium phosphate buffer (pH 7.4). The tested compounds were dissolved in the same buffer, and the concentration ranges in experiments were 0–183 µmol·L^−1, obtained by diluting a 5 mmol·L^−1 stock solution. Spectra were recorded at room temperature by repetitive scanning between 300 and 700 nm at a scan speed of 200 nm/s. The baseline of the reference cuvette contained HLM diluted to the final concentration of CYP 1 µmol·L^−1 in 50 mmol·L^−1 potassium buffer (pH 7.4). Spectra were recorded on a Varian 4000 UV/VIS spectrophotometer (Varian, Palo Alto, CA, USA). The absorbance change at about 417 nm was plotted against the concentration of the tested compounds. Data were analyzed using the Sigma Plot v. 8.0 graphing software (Jandel Scientific, Chicago, IL, USA).

Another data set has as its system CYP3A4. The experiment in a line: Inhibition of CYP3A4 activity (testosterone 6β-hydroxylation) in human liver microsomes. Format: in vitro ADME. The settings on record: HLM, testosterone 100 µmol·L^−1, preincubation 30 min at 37 °C, Mean ± S.D. The procedure: as §1, §2, §3
In a further data set the target is T4, CYP1A2 (Homo sapiens, UniProt P05177).
T4 construct: Pooled human liver microsomes were obtained from Biopredic (Rennes, France); tissue Biopredic (Rennes, France); host or cells: pooled human liver microsomes, seventeen donors
T4 sequence (P05177 1-516): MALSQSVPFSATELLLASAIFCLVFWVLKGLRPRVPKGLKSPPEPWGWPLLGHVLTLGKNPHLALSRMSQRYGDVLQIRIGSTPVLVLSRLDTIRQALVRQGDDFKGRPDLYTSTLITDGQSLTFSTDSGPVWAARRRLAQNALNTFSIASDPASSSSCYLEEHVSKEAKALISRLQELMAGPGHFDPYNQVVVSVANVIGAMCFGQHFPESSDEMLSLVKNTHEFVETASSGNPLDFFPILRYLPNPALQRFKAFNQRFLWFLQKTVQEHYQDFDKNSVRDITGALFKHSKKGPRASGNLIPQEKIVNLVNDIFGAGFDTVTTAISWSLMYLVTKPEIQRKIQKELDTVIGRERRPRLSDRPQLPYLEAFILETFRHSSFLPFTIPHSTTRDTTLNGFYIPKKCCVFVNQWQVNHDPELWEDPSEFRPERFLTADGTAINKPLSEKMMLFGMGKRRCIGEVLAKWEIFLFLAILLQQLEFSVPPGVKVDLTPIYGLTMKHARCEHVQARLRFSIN
As to the kind of experiment: Inhibition of CYP1A2 activity (7-ethoxyresorufin O-deethylation) in human liver microsomes. The note with it: HLM, 7-ethoxyresorufin 1.3 µmol·L^−1, preincubation 30 min at 37 °C, Mean ± S.D. Format: in vitro ADME. The procedure:
as §1, §2, §3

The test system of another data set is E. faecalis. The arrangement: method as in doi:10.1016/j.ica.2022.121273. The settings on record: Gram-positive; cited from earlier work.

T1 sequence (P33261 whole entry): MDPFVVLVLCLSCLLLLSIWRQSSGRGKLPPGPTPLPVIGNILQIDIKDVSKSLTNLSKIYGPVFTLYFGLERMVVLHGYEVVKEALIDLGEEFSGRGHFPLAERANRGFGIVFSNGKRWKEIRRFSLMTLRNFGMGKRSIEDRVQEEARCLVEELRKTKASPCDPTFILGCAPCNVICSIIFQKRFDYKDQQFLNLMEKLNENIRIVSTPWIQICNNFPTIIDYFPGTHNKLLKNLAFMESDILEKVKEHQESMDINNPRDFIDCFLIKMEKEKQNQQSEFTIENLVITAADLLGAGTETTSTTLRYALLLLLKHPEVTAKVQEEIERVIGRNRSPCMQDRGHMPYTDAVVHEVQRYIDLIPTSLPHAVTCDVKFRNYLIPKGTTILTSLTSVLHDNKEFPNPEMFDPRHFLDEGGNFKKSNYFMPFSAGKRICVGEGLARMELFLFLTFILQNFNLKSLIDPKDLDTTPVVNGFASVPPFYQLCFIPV
T3 sequence (P10635 whole entry): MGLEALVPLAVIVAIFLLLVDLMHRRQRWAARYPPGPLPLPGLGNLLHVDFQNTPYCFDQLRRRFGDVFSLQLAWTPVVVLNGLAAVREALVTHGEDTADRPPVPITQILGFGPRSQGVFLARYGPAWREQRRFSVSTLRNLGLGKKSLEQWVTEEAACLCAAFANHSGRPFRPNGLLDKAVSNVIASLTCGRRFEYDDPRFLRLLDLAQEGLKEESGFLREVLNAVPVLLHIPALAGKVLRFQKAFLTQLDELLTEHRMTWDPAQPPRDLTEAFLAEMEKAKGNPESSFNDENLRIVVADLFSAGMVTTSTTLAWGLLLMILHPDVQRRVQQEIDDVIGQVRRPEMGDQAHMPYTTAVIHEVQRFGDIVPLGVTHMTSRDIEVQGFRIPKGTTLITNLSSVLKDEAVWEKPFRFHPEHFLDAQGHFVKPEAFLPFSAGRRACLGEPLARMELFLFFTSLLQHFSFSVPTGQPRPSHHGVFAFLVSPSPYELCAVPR
T2 sequence (P05181 whole entry): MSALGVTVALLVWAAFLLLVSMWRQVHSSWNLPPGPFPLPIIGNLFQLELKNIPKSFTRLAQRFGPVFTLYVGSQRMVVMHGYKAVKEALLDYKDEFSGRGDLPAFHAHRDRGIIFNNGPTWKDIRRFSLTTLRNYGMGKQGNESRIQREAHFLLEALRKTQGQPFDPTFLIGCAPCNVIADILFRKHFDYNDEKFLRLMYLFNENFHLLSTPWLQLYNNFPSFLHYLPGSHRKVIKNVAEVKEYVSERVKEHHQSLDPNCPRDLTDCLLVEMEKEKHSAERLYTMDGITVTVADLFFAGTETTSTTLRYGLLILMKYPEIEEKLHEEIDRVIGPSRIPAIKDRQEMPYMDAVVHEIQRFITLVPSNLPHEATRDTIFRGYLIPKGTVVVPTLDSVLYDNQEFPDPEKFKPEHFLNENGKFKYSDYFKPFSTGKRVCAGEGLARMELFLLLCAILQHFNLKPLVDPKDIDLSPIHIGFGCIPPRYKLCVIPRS

Consider `CN(C)CCN(C)CCN(C)C.CN(C)CCN(C)CCN(C)C.O.O.O=C([O-])CCSSCCC(=O)[O-].[Cu+2].[Cu+2].[O-][Cl+3]([O-])([O-])[O-].[O-][Cl+3]([O-])([O-])[O-]` [Complex No. 6, [Cu2(μ-dtdp)(pmdien)2(H2O)2](ClO4)2], for which the IC50 against CYP2C19 was 6.43 ± 0.63 µM; at CYP2C19 (listed as complex No. 6), around 6.4 µM; against CYP2E1, 6.59 ± 0.18 µM; against CYP2D6, 6.33 ± 0.22 µM; in the data set on CYP3A4, 3.62 ± 0.27 µM; against CYP1A2 it was 25.2 ± 0.29 µM. For the same molecule, the Kd in the data set with HLM CYP enzymes was 44.9 ± 9.88 µM. Further, the “mode of binding to HLM CYP enzymes (difference spectra)” value in the data set on HLM CYP enzymes is on record as “bind to HLM CYP enzymes as substrates”. The “MIC E. faecalis” value in the data set with E. faecalis is 8.44 µg/mL.

On to `CN(C)CCN(C)CCN(C)C.CN(C)CCN(C)CCN(C)C.O.O.O=C([O-])/C=C/C(=O)[O-].[Cu+2].[Cu+2].[O-][Cl+3]([O-])([O-])[O-].[O-][Cl+3]([O-])([O-])[O-]` [Complex No. 5, [Cu2(μ-fu)(pmdien)2(H2O)2](ClO4)2], for which the IC50 is 2.53 ± 0.59 µM at CYP2C19; around 2.5 µM on CYP2C19 (listed as complex No. 5); 12.5 ± 0.18 µM on CYP2E1; 12.4 ± 0.21 µM against CYP2D6; 3.72 ± 0.23 µM in the data set with CYP3A4; 24.97 ± 0.22 µM at CYP1A2. The Kd with HLM CYP enzymes was found to be 39.5 ± 10.1 µM. In addition, in the data set on HLM CYP enzymes, the “mode of binding to HLM CYP enzymes (difference spectra)” value is “bind to HLM CYP enzymes as substrates”. The “MIC E. faecalis” value in the data set on E. faecalis is 4.22 µg/mL.

In general, IC50 refers to the concentration that inhibits the measured activity by half.
